Measurements published in patent publication US12540131B2 (Merck Sharp & Dohme LLC, priority 2019, dated 2026).

Molecular target: GST tagged truncated human mutant G2019S LRRK2 (Homo sapiens (Human), UniProt Q5S007, G2019S)
Assay: LRRK2 Km ATP LanthaScreen Assay
Assay type: biochemical
Details: G2019S LRRK2, 134 μM ATP (Km ATP), mean values; for IC50: read-out: LRRK2 pIC50 (converted)
Outline: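 Enzyme (GST-tagged, truncated) was preincubated with compound for 15 min at RT in 50 mM Tris pH 8.5, 10 mM MgCl2, 0.01% Brij-35, 1 mM EGTA, 2 mM DTT and 0.05 mM orthovanadate. Fluorescein-LRRKtide and 134 μM ATP (Km) were then added for 90 min. EDTA and Tb-anti-pERM antibody stopped the reaction; the TR-FRET 520/495 ratio gave 4-parameter IC50s, reported as mean pIC50.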

GST tagged truncated human mutant G2019S LRRK2, sequence (Q5S007 970-2527 G2019S): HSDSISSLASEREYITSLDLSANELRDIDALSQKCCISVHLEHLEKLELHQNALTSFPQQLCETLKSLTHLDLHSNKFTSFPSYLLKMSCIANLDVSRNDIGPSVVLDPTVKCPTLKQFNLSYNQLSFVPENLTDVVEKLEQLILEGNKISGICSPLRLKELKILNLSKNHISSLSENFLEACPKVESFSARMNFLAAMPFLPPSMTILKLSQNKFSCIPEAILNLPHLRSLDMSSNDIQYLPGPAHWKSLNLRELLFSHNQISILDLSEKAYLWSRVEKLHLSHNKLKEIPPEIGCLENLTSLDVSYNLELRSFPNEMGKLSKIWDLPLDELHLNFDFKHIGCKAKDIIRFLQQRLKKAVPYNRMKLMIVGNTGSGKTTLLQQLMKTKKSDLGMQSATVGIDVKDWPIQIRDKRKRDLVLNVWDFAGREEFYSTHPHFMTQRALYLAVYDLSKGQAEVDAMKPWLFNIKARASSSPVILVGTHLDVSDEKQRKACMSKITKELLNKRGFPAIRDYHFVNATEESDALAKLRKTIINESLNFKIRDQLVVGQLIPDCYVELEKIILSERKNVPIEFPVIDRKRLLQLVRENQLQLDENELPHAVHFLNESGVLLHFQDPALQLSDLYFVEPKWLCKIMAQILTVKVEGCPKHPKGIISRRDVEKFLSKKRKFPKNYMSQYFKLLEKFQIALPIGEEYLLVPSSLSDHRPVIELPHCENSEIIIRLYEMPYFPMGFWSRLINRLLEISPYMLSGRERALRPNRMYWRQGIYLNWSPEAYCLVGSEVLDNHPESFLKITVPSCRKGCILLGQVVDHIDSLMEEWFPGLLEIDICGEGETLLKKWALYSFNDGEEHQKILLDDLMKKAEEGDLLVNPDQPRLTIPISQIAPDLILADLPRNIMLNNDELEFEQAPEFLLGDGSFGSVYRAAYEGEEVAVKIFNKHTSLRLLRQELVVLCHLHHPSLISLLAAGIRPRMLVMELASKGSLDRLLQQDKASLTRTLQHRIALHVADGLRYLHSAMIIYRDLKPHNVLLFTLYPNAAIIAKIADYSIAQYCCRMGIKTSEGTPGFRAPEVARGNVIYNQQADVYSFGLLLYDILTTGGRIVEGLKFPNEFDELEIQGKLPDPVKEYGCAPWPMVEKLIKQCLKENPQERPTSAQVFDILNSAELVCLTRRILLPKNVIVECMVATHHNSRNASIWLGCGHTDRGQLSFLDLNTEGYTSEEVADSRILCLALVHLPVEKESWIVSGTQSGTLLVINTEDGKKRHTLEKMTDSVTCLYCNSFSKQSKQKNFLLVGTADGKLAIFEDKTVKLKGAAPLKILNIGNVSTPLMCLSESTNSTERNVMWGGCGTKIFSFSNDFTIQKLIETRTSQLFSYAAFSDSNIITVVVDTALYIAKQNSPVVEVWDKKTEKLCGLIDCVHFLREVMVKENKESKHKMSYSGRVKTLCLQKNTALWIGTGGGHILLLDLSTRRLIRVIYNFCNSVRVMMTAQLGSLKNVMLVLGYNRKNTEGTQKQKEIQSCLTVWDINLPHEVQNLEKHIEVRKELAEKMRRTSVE

`Cc1c(Nc2ncc3cc(Cl)c(C4CCN(C5(C)COC5)CC4)cc3n2)cnn1C1CC1(F)F` (single isomer, unassigned) [Ex-2.30, (S) or (R) 6-chloro-N-[1-(2,2-difluorocyclopropyl)-5-methyl-1H-pyrazol-4-yl]-7-[1-(3-methyloxetan-3-yl)piperidin-4-yl]quinazolin-2-amine] was tested, and the IC50 was 0.646 nM.
For `CC(n1ncc(Nc2ncc3cc(Cl)c(C4CCN(C5COC5)CC4)cc3n2)c1Cl)C(C)(C)O` (single isomer, unassigned) [Ex-4.62, (8) or (R) 3-[5-chloro-4-({6-chloro-7-[1-(oxetan-3-yl)piperidin-4-yl]quinazolin-2-yl}amino)-1H-pyrazol-1-yl]-2-methylbutan-2-ol], the “LRRK2 pIC50” value was greater than 9.20.
With `Cc1c(Nc2ncc3cc(Cl)c([C@@H]4CCN(C5COC5)C[C@H]4F)cc3n2)cnn1C1CC1(F)F` (single isomer, unassigned) [Ex-4.177, (R)(3S,4S) or (S)(3S,4S) or (R)(3R,4R) or (S)(3R,4R) 6-chloro-N-[1-(2,2-difluorocyclopropyl)-5-methyl-1H-pyrazol-4-yl]-7-[(3R,4R)-3-fluoro-1-(oxetan-3-yl)piperidin-4-yl]quinazolin-2-amine] the “LRRK2 pIC50” value was 9.16.
For `O=S1(=O)CC(N2CC[C@@H](c3cc4nc(Nc5cnn(C6CC6)c5Cl)ncc4cc3Cl)[C@H](F)C2)C1` (single isomer, unassigned), the “LRRK2 pIC50” value was 8.52.
For `CC(=O)N1CCC(c2cc3nc(Nc4cnn(C5CC5)c4Cl)ncc3cc2Cl)C[C@@H]1C` (stereo partly drawn) [Ex-4.8], the “LRRK2 pIC50” value was 7.39.
With `Cc1cc2cnc(Nc3cnn(C4CC4)c3Cl)nc2cc1[C@@H]1CCN([C@@H]2COC[C@@H]2O)C[C@H]1F` (single isomer, unassigned) [Ex-4.150, (3S,4S)(3S,4S) or (3S,4S)(3R,4R) or (3R,4R)(3S,4S) or (3R,4R)(3R,4R) 4-(4-{2-[(5-chloro-1-cyclopropyl-1H-pyrazol-4-yl)amino]-6-methylquinazolin-7-yl}-3-fluoropiperidin-1-yl)oxolan-3-ol] the “LRRK2 pIC50” value was greater than 9.20.
With `Clc1cc2cnc(Nc3cnn(CC4CCC4)c3Cl)nc2cc1C1CCN(C2COC2)CC1` [Ex-4.19, 6-chloro-N-[5-chloro-1-(cyclobutylmethyl)-1H-pyrazol-4-yl]-7-[1-(oxetan-3-yl)piperidin-4-yl]quinazolin-2-amine] the “LRRK2 pIC50” value was 9.17.
For `Cc1c(Nc2ncc3cc(Cl)c(C4CCN(CC(O)CN5CCOCC5)CC4)cc3n2)cnn1C1CC1` (single isomer, unassigned) [Ex-4.227, (S) or (R) 1-(4-{6-chloro-2-[(1-cyclopropyl-5-methyl-1H-pyrazol-4-yl)amino]quinazolin-7-yl}piperidin-1-yl)-3-(morpholin-4-yl)propan-2-ol], the IC50 was less than 0.631 nM.
With `Cc1c(Nc2ncc3cc(Cl)c(C4CCN(C5COC[C@@H]5O)[C@@H](C)C4)cc3n2)cnn1C1CC1` (single isomer, unassigned) [Ex-4.130, (3S,4S)(2S,4R) or (3S,4S)(2S,4S) or (3R,4R)(2S,4R) or (3R,4R)(2S,4S) (3 4-[4-{6-chloro-2-[(1-cyclopropyl-5-methyl-1H-pyrazol-4-yl)amino]quinazolin-7-yl}-2-methylpiperidin-1-yl]oxolan-3-ol] the “LRRK2 pIC50” value was 8.97.
With `CC(C)(O)Cn1ncc(Nc2ncc3cc(Cl)c([C@@H]4CCN(C5(C)COC5)C[C@H]4F)cc3n2)c1Cl` (single isomer, unassigned) [Ex-2.1, (3S,4S) or (3R,4R) 1-(5-chloro-4-((6-chloro-7-(3-fluoro-1-(3-methyloxetan-3-yl)piperidin-4-yl)quinazolin-2-yl)amino)-1H-pyrazol-1-yl)-2-methylpropan-2-ol] the “LRRK2 pIC50” value was 8.79.
Work on `CC(O)(Cn1ncc(Nc2ncc3cc(Cl)c(C4CCN(C5COC5)CC4)cc3n2)c1Cl)C(F)(F)F` (single isomer, unassigned) [Ex-8.27, (S) or (R) 3-[5-chloro-4-({6-chloro-7-[1-(oxetan-3-yl)piperidin-4-yl]quinazolin-2-yl}amino)-1H-pyrazol-1-yl]-1,1,1-trifluoro-2-methylpropan-2-ol] yielded an IC50 of 0.851 nM.
`[2H]C([2H])([2H])n1ncc(Nc2ncc3cc(Cl)c(C4CCN([C@H]5COC[C@H]5O)CC4)cc3n2)c1Cl` (single isomer, unassigned) [Ex-2.70, (3S,4S) or (3R,4R) 4-(4-(6-chloro-2-((5-chloro-1-(methyl-d3)-1H-pyrazol-4-yl)amino)quinazolin-7-yl)piperidin-1-yl)tetrahydrofuran-3-ol] was tested, and the “LRRK2 pIC50” value was greater than 9.20.
`Cc1c(Nc2ncc3cc(Cl)c(C4CCN(CC5(O)CCOCC5)CC4)cc3n2)cnn1C1CC1` [Ex-4.210, 4-[(4-{6-chloro-2-[(1-cyclopropyl-5-methyl-1H-pyrazol-4-yl)amino]quinazolin-7-yl}piperidin-1-yl)methyl]oxan-4-ol] was tested, and the “LRRK2 pIC50” value was 8.55.
`Cc1c(Nc2ncc3cc(Cl)c(C4CCN(C[C@H](O)c5cc(F)cc(F)c5)CC4)cc3n2)cnn1C1CC1` [Ex-4.198, (1R)-2-(4-{6-chloro-2-[(1-cyclopropyl-5-methyl-1H-pyrazol-4-yl)amino]quinazolin-7-yl}piperidin-1-yl)-1-(3,5-difluorophenyl)ethan-1-ol] was tested, and the “LRRK2 pIC50” value was 7.88.
With `Cc1cc2cnc(Nc3cnn(C4CC4(F)F)c3C)nc2cc1[C@@H]1CCN([C@@H]2COC[C@@H]2O)C[C@H]1F` (single isomer, unassigned) [Ex-4.146, (R)(3S,4S)(3S,4S) or (R)(3S,4S)(3R,4R) or (R)(3R,4R)(3S,4S) or (R)(3R,4R)(3R,4R) or (S)(3S,4S)(3S,4S) or (S)(3S,4S)(3R,4R) or (S)(3R,4R)(3S,4S) or (S)(3R,4R)(3R,4R) 4-[4-(2-{[1-(2,2-difluorocyclopropyl)-5-methyl-1H-pyrazol-4-yl]amino}-6-methylquinazolin-7-yl)-3-fluoropiperidin-1-yl]oxolan-3-ol] the “LRRK2 pIC50” value was greater than 9.20.
With `CN1CC[C@H](c2cc3nc(Nc4cnn(C5(C)CC5)c4Cl)ncc3cc2Cl)[C@@H](O)C1` (single isomer, unassigned) [Ex-4.30, (3S,4S) or (3R,4R) 4-(6-chloro-2-{[5-chloro-1-(1-methylcyclopropyl)-1H-pyrazol-4-yl]amino}quinazolin-7-yl)-1-methylpiperidin-3-ol] the “LRRK2 pIC50” value was 7.32.
In the case of `O[C@H]1COCC1N1CC[C@@H](c2cc3nc(Nc4cnn(C5CC5)c4Cl)ncc3cc2Cl)[C@H](F)C1` (single isomer, unassigned) [Ex-4.122, (3S,4S)(3S,4S) or (3S,4S)(3R,4R) or (3R,4R)(3S,4S) or (3R,4R)(3R,4R) 4-{6-chloro-2-[(5-chloro-1-cyclopropyl-1H-pyrazol-4-yl)amino]quinazolin-7-yl}-3-fluoropiperidin-1-yl]oxolan-3-ol], the “LRRK2 pIC50” value is reported as greater than 9.20.
For `Cc1nn(CC(C)(C)O)cc1Nc1ncc2cc(Cl)c(C3CCN(C4COC4)CC3)cc2n1` [Ex-2.61, 1-[4-({6-chloro-7-[1-(oxetan-3-yl)piperidin-4-yl]quinazolin-2-yl}amino)-3-methyl-1H-pyrazol-1-yl]-2-methylpropan-2-ol], the “LRRK2 pIC50” value was 8.66.
In the case of `Cc1nsc(Nc2ncc3cc(Cl)c([C@@H]4CCN(C5COC[C@H]5O)C[C@H]4F)cc3n2)c1Cl` (single isomer, unassigned) [Ex-4.121, (3S,4S)(3S,4S) or (3S,4S)(3R,4R) or (3R,4R)(3S,4S) or (3R,4R)(3R,4R) 4-{6-chloro-2-[(4-chloro-3-methyl-1,2-thiazol-5-yl)amino]quinazolin-7-yl}-3-fluoropiperidin-1-yl]oxolan-3-ol], the “LRRK2 pIC50” value is reported as 8.92.
For `CC1OCC1N1CC[C@@H](c2cc3nc(Nc4cnn(CC(C)(C)O)c4Cl)ncc3cc2Cl)[C@H](F)C1` (single isomer, unassigned) [Ex-4.71, (3S,4S)(2R,3R) or (3S,4S)(2S,3S) or (3R,4R)(2R,3R) or (3R,4R)(2S,3S) or (3R,4R)(2S,3R) or (3R,4R)(2R,3S) or (3S,4S)(2S,3R) or (3S,4S)(2R,3S) 1-[5-chloro-4-({6-chloro-7-[3-fluoro-1-(2-methyloxetan-3-yl)piperidin-4-yl]quinazolin-2-yl}amino)-1H-pyrazol-1-yl]-2-methylpropan-2-ol], the “LRRK2 pIC50” value was 7.74.
For `COC1CC(Cn2ncc(Nc3ncc4cc(Cl)c(C5CCN(C6COC6)CC5)cc4n3)c2Cl)C1` (stereo not drawn) [Ex-8.17, 6-chloro-N-{5-chloro-1-[(3-methoxycyclobutyl)methyl]-1H-pyrazol-4-yl}-7-[1-(oxetan-3-yl)piperidin-4-yl]quinazolin-2-amine], the “LRRK2 pIC50” value was greater than 9.20.
In the case of `Cc1nsc(Nc2ncc3cc(Cl)c([C@H]4CCN(C5CCOC5)C[C@@H]4F)cc3n2)c1Cl` (single isomer, unassigned) [Ex-8.23, (3S,4S)(S) or (3S,4S)(R) or (3R,4R)(S) or (3R,4R)(R) 6-chloro-N-(4-chloro-3-methyl-1,2-thiazol-5-yl)-7-[3-fluoro-1-(oxolan-3-yl)piperidin-4-yl]quinazolin-2-amine], the “LRRK2 pIC50” value is reported as 8.12.
In the case of `C[C@@]1(N2CCC(c3cc4nc(Nc5cnn(C6CC6)c5Cl)ncc4cc3Cl)CC2)COC[C@@H]1O` (single isomer, unassigned) [Ex-1.7, (3R,4R)- or (3S,4S)-4-(4-(6-chloro-2-((5-chloro-1-cyclopropyl-1H-pyrazol-4-yl)amino)quinazolin-7-yl)piperidin-1-yl)-4-methyltetrahydrofuran-3-ol], the “LRRK2 pIC50” value is reported as greater than 9.20.
In the case of `Cn1ncc(Nc2ncc3cc(Cl)c(C4CCN([C@]5(C)COC[C@@H]5O)CC4)cc3n2)c1C(F)(F)F` (single isomer, unassigned) [Ex-2.90, (3S,4S) or (3R,4R) 4-(4-(6-chloro-2-((1-methyl-5-(trifluoromethyl)-1H-pyrazol-4-yl)amino)quinazolin-7-yl)piperidin-1-yl)-4-methyltetrahydrofuran-3-olyl)piperidin-1-yl]-4-methyloxolan-3-ol], the “LRRK2 pIC50” value is reported as greater than 9.20.
